From patent US20110136666A1, “CHEMICAL COMPOUNDS” (SYNGENTA CROP PROTECTION, INC., priority 2008, published 2011)

Columns and labels:
[1] = system: Echinochloa crus-galli (ECHCG); experiment: Pre-emergence biological efficacy, glasshouse pot test; assay type: in vivo; conditions: 312 h, after 13 days, 100=total damage, 0=no damage, read-out: Percentage damage caused to weed species ECHCG
Procedure, shortened: (§1)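 Pots sown with weed seeds, sprayed 1 day after sowing with test compound in acetone/water (50:50) plus 0.5% Tween 20 at 250 or 1000 g/ha. Plants grown in glasshouse at 24/16° C day/night, 14 h light, 65% humidity, watered twice daily. Damage scored visually after 13 days (0 = none, 100 = total).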

[2] = system: Amaranthus retroflexus (AMARE); experiment: as above; assay type: in vivo; conditions: 312 h, after 13 days, 100=total damage, 0=no damage, read-out: Percentage damage caused to weed species AMARE
Procedure, shortened: as §1

Setaria faberi (SETFA) [3] = experiment: as above; assay type: in vivo; conditions: 312 h, after 13 days, 100=total damage, 0=no damage, read-out: Percentage damage caused to weed species SETFA
Procedure, shortened: as §1

Solanum nigrum (SOLNI) [4] = experiment: as above; assay type: in vivo; conditions: 312 h, after 13 days, 100=total damage, 0=no damage, read-out: Percentage damage caused to weed species SOLNI
Procedure, shortened: as §1

[5] = system: Alopecurus myosuroides (ALOMY); experiment: as above; assay type: in vivo; conditions: 312 h, after 13 days, 100=total damage, 0=no damage, read-out: Percentage damage caused to weed species ALOMY
Procedure, shortened: as §1

[6] = system: Ipomea hederaceae (IPOHE); experiment: as above; assay type: in vivo; conditions: Ipomoea hederacea, 312 h, after 13 days, 100=total damage, 0=no damage, read-out: Percentage damage caused to weed species IPOHE
Procedure, shortened: as §1

[7] = system: Echinochloa crus-galli (ECHCG); experiment: Post-emergence biological efficacy, glasshouse pot test; assay type: in vivo; conditions: 312 h, after 13 days, 100=total damage, 0=no damage, read-out: Percentage damage caused to weed species ECHCG
Procedure, shortened: (§2)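 Species sown in soil and grown 8 days in glasshouse (24/16 °C day/night, 14 h light, 65% humidity), then sprayed with compound in acetone/water (50:50) with 0.5% Tween 20 at 250 or 1000 g/ha. Damage scored visually after 13 days (0 = none, 100 = total).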

[8] = system: Amaranthus retroflexus (AMARE); experiment: as above; assay type: in vivo; conditions: 312 h, after 13 days, 100=total damage, 0=no damage, read-out: Percentage damage caused to weed species AMARE
Procedure, shortened: as §2

Setaria faberi (SETFA) [9] = experiment: as above; assay type: in vivo; conditions: 312 h, after 13 days, 100=total damage, 0=no damage, read-out: Percentage damage caused to weed species SETFA
Procedure, shortened: as §2

Solanum nigrum (SOLNI) [10] = experiment: as above; assay type: in vivo; conditions: 312 h, after 13 days, 100=total damage, 0=no damage, read-out: Percentage damage caused to weed species SOLNI
Procedure, shortened: as §2

[11] = system: Alopecurus myosuroides (ALOMY); experiment: as above; assay type: in vivo; conditions: 312 h, after 13 days, 100=total damage, 0=no damage, read-out: Percentage damage caused to weed species ALOMY
Procedure, shortened: as §2

[12] = system: Ipomea hederaceae (IPOHE); experiment: as above; assay type: in vivo; conditions: Ipomoea hederacea, 312 h, after 13 days, 100=total damage, 0=no damage, read-out: Percentage damage caused to weed species IPONE
Procedure, shortened: as §2

Structure (SMILES)	pest or weed control at 1000 g/ha [1]	pest or weed control at 1000 g/ha [2]	pest or weed control at 1000 g/ha (Setaria faberi (SETFA) [3])	pest or weed control at 1000 g/ha (Solanum nigrum (SOLNI) [4])	pest or weed control at 1000 g/ha [5]	pest or weed control at 1000 g/ha [6]	pest or weed control at 1000 g/ha [7]	pest or weed control at 1000 g/ha [8]	pest or weed control at 1000 g/ha (Setaria faberi (SETFA) [9])	pest or weed control at 1000 g/ha (Solanum nigrum (SOLNI) [10])	pest or weed control at 1000 g/ha [11]	pest or weed control at 1000 g/ha [12]	melting point	other results
CCOC(=O)c1nc(-c2ccccn2)nc(N)c1Cl [Compound 3-149, 4-amino-5-chloro-6-ethoxycarbonyl-2-pyridin-2-ylpyrimidine]	0%	0%	0%	0%	0%	0%	0%	0%	0%	0%	0%	0%	176 to 180 °C (dec.)	
Nc1nc(-c2ccccn2)nc(C(=O)O)c1Cl [Compound 1-149, 4-amino-5-chloro-2-pyridin-2-ylpyrimidine-6-carboxylic acid]	0%	0%	0%	0%	0%	0%	0%	0%	0%	0%	0%	0%	183 °C (dec.)	
C=Cc1c(N)nc(-c2ccc(Cl)nc2)nc1C(=O)OC [Compound 68-156, 4-amino-2-(6-chloropyridin-3-yl)-5-ethenyl-6-methoxycarbonyl-pyrimidine]	0%	100%	10%	40%	10%	40%	0%	100%	0%	90%	0%	50%	194 to 195 °C	
COC(=O)c1nc(-c2ccc(C#N)nc2)nc(N)c1Cl [Compound 2-158, 4-amino-5-chloro-2-(2-cyanopyridin-5-yl)-6-methoxycarbonylpyrimidine]	0%	0%	0%	0%	0%	0%	0%	0%	0%	20%	0%	20%	210 to 213 °C	
COC(=O)c1nc(-c2cnn(C)c2)nc(N)c1Cl [Compound 2-71, 4-amino-5-chloro-6-methoxycarbonyl-2-(1-methyl-1H-pyrazol-4-yl)-pyrimidine]	0%	0%	0%	0%	0%	0%	0%	0%	0%	0%	0%	30%	185 to 186 °C	
COC(=O)c1nc(-c2ccc(C(C)=O)s2)nc(N)c1Cl [Compound 2-9, 4-Amino-5-chloro-6-methoxycarbonyl-2-(5-methylcarbonyl-thiophen-2-yl)-pyrimidine]														pest or weed control at 250 g/ha ([1]; 250 g/ha): 0%; pest or weed control at 250 g/ha ([2]; 250 g/ha): 0%; pest or weed control at 250 g/ha (Setaria faberi (SETFA) [3]; 250 g/ha): 0%; pest or weed control at 250 g/ha (Solanum nigrum (SOLNI) [4]; 250 g/ha): 0%; pest or weed control at 250 g/ha ([5]; 250 g/ha): 0%; pest or weed control at 250 g/ha ([6]; 250 g/ha): 0%; pest or weed control at 250 g/ha ([7]; 250 g/ha): 0%; pest or weed control at 250 g/ha ([8]; 250 g/ha): 0%; pest or weed control at 250 g/ha (Setaria faberi (SETFA) [9]; 250 g/ha): 0%; pest or weed control at 250 g/ha (Solanum nigrum (SOLNI) [10]; 250 g/ha): 0%; pest or weed control at 250 g/ha ([11]; 250 g/ha): 0%; pest or weed control at 250 g/ha ([12]; 250 g/ha): 0%
